The source of these data is ChEMBL document CHEMBL4024742, “Pharmaceutical Approaches to Target Antibiotic Resistance Mechanisms” (J Med Chem, 2017).

A short description of experiment [1]: Inhibition of Klebsiella pneumoniae NP6 KPC-2 expressed in Escherichia coli DH5alpha.
Experiment [2] concerns Escherichia coli. As to the kind of experiment: Antibacterial activity against multi drug-resistant Escherichia coli KG4 after 24 hrs by serial dilution method. It counts as functional. The settings on record: KG4, 24 h.
For experiment [3], the system named is Escherichia coli. Description: Antibacterial activity against multi drug-resistant Escherichia coli KG1 after 24 hrs by serial dilution method. The format is functional. The settings on record: KG1, 24 h.
Experiment [4] has as its system Escherichia coli. As to the kind of experiment: Antibacterial activity against multi drug-resistant Escherichia coli EM5 mutant after 24 hrs by serial dilution method. It counts as functional.
The subject of experiment [5] is Escherichia coli. As to the kind of experiment: Antibacterial activity against multi drug-resistant Escherichia coli EM7 mutant after 24 hrs by serial dilution method. It counts as functional.
Experiment [6] relates to Escherichia coli. As to the kind of experiment: Antibacterial activity against multi drug-sensitive Escherichia coli MTCC 739 after 24 hrs by serial dilution method. It counts as functional. The note with it: MTCC 739, 24 h.
Experiment [7] deals with Pseudomonas aeruginosa. As to the kind of experiment: Antimicrobial activity against Pseudomonas aeruginosa. It counts as functional.
The test system of experiment [8] is Escherichia coli. Description: Antimicrobial activity against Escherichia coli. It counts as functional.
The subject of the next experiment is Enterobacter. Description: Antimicrobial activity against Enterobacter. It counts as functional.
Experiment [9] in a line: Inhibition of Escherichia coli PBP2.
Experiment [10] has as its system Staphylococcus aureus. Description: Inhibition of biofilm formation in Staphylococcus aureus ATCC 29213 at 1.5 ug/ml after 24 hrs by MTT assay. The format is functional. The note with it: ATCC 29213, 24 h.
Experiment [11] has as its system Staphylococcus aureus. As to the kind of experiment: Inhibition of biofilm formation in Staphylococcus aureus ATCC 25923 at 1.5 ug/ml after 24 hrs by MTT assay. It counts as functional. The note with it: ATCC 25923, 24 h. A general note: Tetrazolium dyes change colour on reduction, which living cells bring about.
For experiment [12], the system named is Staphylococcus aureus. Description: Inhibition of biofilm formation in Staphylococcus aureus ATCC 657 at 1.5 ug/ml after 24 hrs by MTT assay. The format is functional. The note with it: ATCC 657, 24 h.
For experiment [13], the system named is Staphylococcus aureus. Description: Inhibition of biofilm formation in Staphylococcus aureus ATCC 702 at 1.5 ug/ml after 24 hrs by MTT assay. The note with it: ATCC 702, 24 h. The format is functional.
Experiment [14] concerns Staphylococcus epidermidis. As to the kind of experiment: Inhibition of biofilm formation in Staphylococcus epidermidis DSM 3269 at 1.5 ug/ml after 24 hrs by MTT assay. The format is functional. The settings on record: DSM 3269, 24 h.
Experiment [15] concerns Staphylococcus epidermidis. Description: Inhibition of biofilm formation in Staphylococcus epidermidis RP62A at 1.5 ug/ml after 24 hrs by MTT assay. It counts as functional.
Experiment [16] in a line: Inhibition of bacterial IMP-1 using nitrocefin as substrate. On the set-up: species or system Bacteria.
For experiment [17], the system named is Staphylococcus aureus. Description: Antibiofilm activity against methicillin-resistant Staphylococcus aureus BAA-44 at 100 uM after 24 hrs by crystal violet staining based assay. It counts as functional. The settings on record: BAA-44, 24 h.
The subject of experiment [18] is Staphylococcus aureus. Description: Antibiofilm activity against methicillin-resistant Staphylococcus aureus BAA-44 after 24 hrs by crystal violet staining based assay. It counts as functional. The settings on record: BAA-44, 24 h.
Experiment [19] deals with T1, Quinolone resistance protein NorA (Staphylococcus aureus) (UniProt P0A0J7).
T1 sequence (whole entry): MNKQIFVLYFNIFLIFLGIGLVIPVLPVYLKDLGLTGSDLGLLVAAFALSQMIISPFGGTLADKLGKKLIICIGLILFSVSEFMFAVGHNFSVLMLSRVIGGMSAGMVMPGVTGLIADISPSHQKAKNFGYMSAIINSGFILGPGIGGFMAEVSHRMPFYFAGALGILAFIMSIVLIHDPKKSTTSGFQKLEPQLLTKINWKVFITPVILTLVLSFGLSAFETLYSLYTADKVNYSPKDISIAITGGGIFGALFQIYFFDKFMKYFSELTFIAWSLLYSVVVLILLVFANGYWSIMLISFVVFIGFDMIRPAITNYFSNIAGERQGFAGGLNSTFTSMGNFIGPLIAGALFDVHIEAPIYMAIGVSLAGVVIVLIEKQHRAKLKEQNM
As to the kind of experiment: Inhibition of Staphylococcus aureus 1199B NorA assessed as potentiation of ciprofloxacin-induced antibacterial activity by measuring fold reduction in ciprofloxacin MIC at 12.5 to 25 uM.

Experiment [20] concerns Pseudomonas aeruginosa. As to the kind of experiment: Inhibition of Pseudomonas aeruginosa MexAB-Oprm assessed as potentiation of ciprofloxacin-induced antibacterial activity at 50 ug/ml (reference value: 16 ug/ml).
The subject of experiment [21] is Pseudomonas aeruginosa. As to the kind of experiment: Inhibition of Pseudomonas aeruginosa MexAB-Oprm assessed as potentiation of levofloxacin-induced antibacterial activity at 50 ug/ml (reference value: 16 ug/ml).
Experiment [22] concerns Staphylococcus aureus. Description: Antibacterial activity against Staphylococcus aureus ATCC 25923 after 24 hrs by broth microdilution method. It counts as functional. The note with it: ATCC 25923, 24 h. For orientation: Dilution methods test growth across graded concentrations, often in twofold steps.
Experiment [23] relates to Staphylococcus aureus. As to the kind of experiment: Antibacterial activity against Staphylococcus aureus 1199B after 24 hrs by broth microdilution method. It counts as functional.
Experiment [24] addresses T1, Quinolone resistance protein NorA (Staphylococcus aureus). Description: Inhibition of Staphylococcus aureus 1199B NorA assessed as potentiation of ciprofloxacin-induced antibacterial activity at 0.5 ug/ml after 24 hrs.
Experiment [25] shares this target. Description: Inhibition of Staphylococcus aureus 1199B NorA assessed as potentiation of ciprofloxacin-induced antibacterial activity at 2 ug/ml after 24 hrs.
Experiment [26] in a line: Inhibition of bacterial AmpC. On the set-up: species or system Bacteria.

SMILES strings stand for the structures. ≈ marks a conversion by molar mass, not a printed value. Where a SMILES comes first, the peptide text is derived from it. The star is where a group is joined. βNA = c1ccc2cc(N*)ccc2c1

Regarding `CC(=O)Nc1ccc(S(=O)(=O)Nc2ccccc2NS(=O)(=O)c2ccc(NC(C)=O)cc2)cc1`, the IC50 in [1] turned out to be 200 µM.

For `CCCCCCCCCCCCCCCC(=O)O[C@H]1CCC(=O)c2ccccc21` [4-O-PALMITOYL-ALPHATETRALONE], the MIC with Escherichia coli [2], in the experiment with Escherichia coli [3], against Escherichia coli [4], with Escherichia coli [5] and in the experiment with Escherichia coli [6] was 250 to 1000 µg/mL (≈ 624 to 2500 µM) each time.

On to `O=C(NOC1CCNC1)[C@@H]1CC[C@@H]2CN1C(=O)N2OS(=O)(=O)[O-].[Na+]` (stereo not given in full), for which the MIC with Pseudomonas aeruginosa [7], with Escherichia coli [8] and in the experiment on Enterobacter was no more than 2 µg/mL in each case. Also, in experiment [9], the 50% inhibitory concentration (IC50) was determined as 16 µM.

Regarding `O=C(c1cc(Br)ccc1O)c1[nH]c(Cl)c(Br)c1Br`, the inhibition at 1.5 µg/mL (with Staphylococcus aureus [10]; in the experiment with Staphylococcus aureus [11]; with Staphylococcus aureus [12]; with Staphylococcus aureus [13]; in experiment [14]; in experiment [15]) was greater than 60% in each case.

With `O=C(O)[C@@H](Cc1ccc2c(c1)OCO2)[C@H](Cc1ccc2c(c1)OCO2)C(=O)O`, the IC50 in experiment [16] lay in the range of 0.0027 to 0.009 µM.

Regarding `O=C(NNC(=O)[C@@H]1CC[C@@H]2CN1C(=O)N2OS(=O)(=O)[O-])C1CNC1.[Na+]`, the MIC with Pseudomonas aeruginosa [7], in the experiment with Escherichia coli [8] and in the experiment on Enterobacter was no more than 2 µg/mL in each case. Besides, 3.6 µM corresponded to half-maximal inhibition in experiment [9] (IC50).

Regarding `C/C(=C\c1cccc2ccccc12)Cn1cc(CCCCCc2c[nH]c(N)n2)nn1`, in the experiment with Staphylococcus aureus [17], the inhibition at 100 µM was greater than 94%. Moreover, inhibition in the experiment with Staphylococcus aureus [18] was half-maximal at 9.86 µM (IC50).

Consider `COc1cc(CNC(=O)CCCC/C=C/C(C)C)ccc1O`, for which the fold change (FC) in experiment [19] lay within 2 to 4.

`O=C(O)[C@H](Cc1ccc2c(c1)OCO2)[C@@H](Cc1ccc2c(c1)OCO2)C(=O)O` had an IC50 in experiment [16] of 0.21 µM.

On to `O=C(O)[C@@H](Cc1ccc2c(c1)OCO2)[C@@H](Cc1ccc2c(c1)OCO2)C(=O)O`, for which, in experiment [16], the half-inhibitory concentration (IC50) was 200 µM.

Regarding `N=C(N)NCCC[C@H](NC(=O)[C@@H](N)Cc1ccccc1)C(=O)Nc1ccc2ccccc2c1` (H-Phe-Arg-βNA), the MIC in the experiment with Pseudomonas aeruginosa [20] and in the experiment with Pseudomonas aeruginosa [21] was 2 µg/mL throughout.

Take `O=C(c1cc(Cl)cc(Cl)c1O)c1[nH]c(Cl)c(Cl)c1Cl`: the inhibition at 1.5 µg/mL (with Staphylococcus aureus [10]; in the experiment on Staphylococcus aureus [11]; with Staphylococcus aureus [12]; in the experiment on Staphylococcus aureus [13]; in [14]; in experiment [15]) was greater than 60% each time.

Turning to `CC(C)(C)OC(=O)NCC(NC(=O)C(=O)c1c[nH]c2ccccc12)c1c[nH]c2ccccc12` (stereo not given), the MIC against Staphylococcus aureus [22] was greater than 32 µg/mL; against Staphylococcus aureus [23], greater than 32 µg/mL; in experiment [24] it was 4 µg/mL; in [25], 2 µg/mL.

Take `O=S(=O)(NCB(O)O)c1ccc(-c2nnn[nH]2)cc1C(F)(F)F`: the inhibition constant Ki in experiment [26] turned out to be 50 pM.

Take `O=C(O[C@H]1CCC(=O)c2ccccc21)c1ccccc1` [4-O-BENZOYL-ALPHA-TETRALONE]: the MIC in the experiment with Escherichia coli [2], with Escherichia coli [3], against Escherichia coli [4], with Escherichia coli [5] and against Escherichia coli [6] was 250 to 1000 µg/mL (≈ 939 to 3760 µM) each time.

In the experiment with Staphylococcus aureus [17], `CCCCc1ccc(/C=C(\C)Cn2cc(CCCCCc3c[nH]c(N)n3)nn2)cc1` showed an inhibition at 100 µM greater than 94%.

For orientation: IC50 means the concentration at which inhibition is half-maximal. Read a high IC50 as lower potency. As a reminder, the inhibition is the share of the control response that was lost under treatment. A low value points to a response near the control. The term Ki denotes a measure of affinity in units of concentration, obtained from inhibition or displacement.
